{
  "source": "patent US20240000669A1",
  "about": "“NOVEL ENDODONTIC IRRIGANT” (INTER-MED, INC., priority 2020, published 2024)",
  "key": {"[1]": {"test": "Smear layer removal from instrumented root canals (smear layer score)", "conditions": "score 1 = very little smear layer remaining, 5 = heavy smear layer present", "text": "(§1) A score of 1 indicates very little smear layer remaining, whereas a score of 5 indicates heavy smear layer present."}, "[2]": {"test": "Mass loss of tissue samples in sodium hypochlorite at different pH values (FIG. 6)", "conditions": "30 mL sodium hypochlorite, 30 minutes", "text": "The organic tissue dissolution capacity of NaOCl may be a function of free available chlorine in solution and a function of alkalinity. As pH increases to above […] the proportion of the hypochlorite anion (OCl^−) to hypochlorous acid (HOCl) dramatically increases. Below this pH, the concentration of hypochlorite anion decreases and the concentration of HOCl increases (see FIG. 5, which illustrates the chlorine speciation profile as a function of pH). […] However, as the concentration of the hypochlorite ions decreases, the tissue dissolution capacity also decreases (see FIG. 6, which illustrates mass loss of tissue samples incubated in 30 mL of sodium hypochlorite at different pH values after 30 minutes.). In certain aspects of the invention, the medicament comprises HOCl and OCl— and has a pH between 8 and 10."}, "[3]": {"test": "Organic tissue dissolution capacity of antiseptic and chelating solutions (mass loss of tissue samples, FIG. 4)", "conditions": "30 mL aqueous solution, 30 minutes", "method": "Since the smear layer produced upon mechanical debridement of infected dental hard tissues includes both organic and inorganic dentin components, an investigation was conducted to determine the organic tissue dissolution capacity of various antiseptics and chelating solutions that are commonly used in dentistry and medical applications. For this purpose, soft tissue samples were incubated in aqueous solutions containing the agents to be studied and the mass loss of the tissue samples was measured. The results are collected in FIG. 4, where the average mass loss is given as a percentage fraction of the initial weight. FIG. 4 illustrates the mass loss (Mean %) of tissue samples incubated in 30 mL of aqueous solutions of various agents after 30 minutes. […] It can be seen that high concentrations of NaOCl along with the addition of surfactants (anionic and nonionic) tended to increase the tissue dissolution rate."}, "[4]": {"test": "Free available chlorine over time in 1:1 mixtures of chelating agent solutions with 3% NaOCl", "assay_type": "physicochemical", "conditions": "for ability to maintain initial available chlorine, in words: after 1 hour, HEDP only above a pH of 11"}, "[5]": {"test": "Preliminary investigation of smear layer removal (calcium chelation)", "text": "as §1"}},
  "data": [
    {"smiles": "OCl", "note": "[NaOCl, sodium hypochlorite]", "values": [
      {"measurement": "residual smear layer score, Apical", "setting": "[1]; apical root canal third", "result": 3.5},
      {"measurement": "residual smear layer score, Coronal", "setting": "[1]; coronal root canal third", "result": 3.2},
      {"measurement": "residual smear layer score, Middle", "setting": "[1]; middle root canal third", "result": 3.6},
      {"measurement": "capability of dissolving organic tissue as a function of pH (FIG. 6), in words", "setting": "[2]", "result": "most capable of dissolving organic tissue at a pH above 8"},
      {"measurement": "mass loss of tissue samples (FIG. 4), in words", "setting": "[3]", "result": "largest mass loss"}
    ]},
    {"smiles": "O=C(O)CCC(CC(=O)O)(C(=O)O)P(=O)(O)O", "note": "(stereo not drawn) [PBTC, 2-phosphonobutane-1,2,4,-tricarboxylic Acid]", "values": [
      {"measurement": "ability to maintain initial available chlorine, in words", "setting": "[4]", "result": "able to maintain most of their initial available chlorine"}
    ]},
    {"smiles": "O=P(O)(O)O[C@H]1[C@H](OP(=O)(O)O)[C@@H](OP(=O)(O)O)[C@H](OP(=O)(O)O)[C@@H](OP(=O)(O)O)[C@H]1OP(=O)(O)O", "note": "[PA, phytic acid (C6H6[OPO(OH)2]6)]", "values": [
      {"measurement": "ability to maintain initial available chlorine, in words", "setting": "[4]", "result": "able to maintain most of their initial available chlorine"},
      {"measurement": "calcium chelator strength, in words", "setting": "[5]", "result": "relatively weak calcium chelators"}
    ]},
    {"smiles": "O=P1([O-])OP(=O)([O-])OP(=O)([O-])OP(=O)([O-])OP(=O)([O-])OP(=O)([O-])O1.[Na+].[Na+].[Na+].[Na+].[Na+].[Na+]", "note": "[SH, sodium hexametaphosphate]", "values": [
      {"measurement": "ability to maintain initial available chlorine, in words", "setting": "[4]", "result": "able to maintain most of their initial available chlorine"},
      {"measurement": "calcium chelator strength, in words", "setting": "[5]", "result": "relatively weak calcium chelators"}
    ]},
    {"smiles": "CC(O)(P(=O)(O)O)P(=O)(O)O", "note": "[HEDP, 1-hydroxyethylidene-1,1-diphosphonic acid]", "values": [
      {"measurement": "Free Available Chlorine Remaining Post Mix (hours): 0", "setting": "[4]; 0 h, HEDP 15% at pH 11.1, 1:1 mix with 3% NaOCl", "result": 100, "unit": "%"},
      {"measurement": "Free Available Chlorine Remaining Post Mix (hours): 1", "setting": "[4]; 1 h, HEDP 15% at pH 11.1, 1:1 mix with 3% NaOCl", "result": 80, "unit": "%"},
      {"measurement": "Free Available Chlorine Remaining Post Mix (hours): 4", "setting": "[4]; 4 h, HEDP 15% at pH 11.1, 1:1 mix with 3% NaOCl", "result": 40, "unit": "%"},
      {"measurement": "Free Available Chlorine Remaining Post Mix (hours): 24", "setting": "[4]; 24 h, HEDP 15% at pH 11.1, 1:1 mix with 3% NaOCl", "result": 20, "unit": "%"},
      {"measurement": "ability to maintain initial available chlorine, in words", "setting": "[4]", "result": "able to maintain most of their initial available chlorine"}
    ]}
  ]
}
